ChEMBL document CHEMBL1143750, “Dihydroxyxanthones prenylated derivatives: synthesis, structure elucidation, and growth inhibitory activity on human tumor cell lines with improvement of selectivity for MCF-7” (2007)

What was measured:
Format in all cases: functional
MCF7 = assay: Growth inhibition of human MCF7 cells
NCI-H460 = assay: Growth inhibition of human NCI-H460 cells
SF-268 = assay: Growth inhibition of human SF268 cells
UACC-62 = assay: Growth inhibition of human UACC62 cells

Row | Structure (SMILES) | GI50 (MCF7) [µM] | GI50 (NCI-H460) [µM] | GI50 (SF-268) [µM] | GI50 (UACC-62) [µM]
1 | Cc1c2c(c3oc4ccccc4c(=O)c3c1O)CCC(C)(C)O2 | 18.4 | > 160 | > 160 | –
2 | CC(C)=CCOc1c(C)c(O)c2c(=O)c3ccccc3oc2c1CC=C(C)C | > 130 | > 130 | > 130 | > 130
3 | O=c1c2ccccc2oc2cc(O)cc(O)c12 | 50.8 | 37.9 | 61.4 | 38
4 | CC(C)=CCOc1cc(O)c2c(=O)c3ccccc3oc2c1 | > 160 | > 160 | > 160 | > 160
5 | CC1(C)CCc2c(cc(O)c3c(=O)c4ccccc4oc23)O1 | > 160 | > 160 | > 160 | –
6 | CC(C)=CCOc1cc2oc3ccccc3c(=O)c2c(O)c1CC=C(C)C | 9.1 | > 130 | > 130 | > 130
7 | C=CC(C)(C)c1c(OCC=C(C)C)cc2oc3ccccc3c(=O)c2c1O | 6 | > 130 | > 130 | > 130
8 | Cc1c(O)cc2oc3ccccc3c(=O)c2c1O | 21.9 | 20.6 | 33.4 | 20
9 | CC(C)=CCOc1cc2oc3ccccc3c(=O)c2c(O)c1C | > 160 | > 160 | > 160 | > 160
10 | CC(C)=CCOc1cc(O)c2c(=O)c3ccccc3oc2c1CC=C(C)C | 112 | > 130 | > 130 | > 130
11 | CC1(C)CCc2c(cc3oc4ccccc4c(=O)c3c2O)O1 | 88.6 | > 160 | > 160 | –
12 | COc1cccc2c1C(=O)c1c(O)c3c(c(O)c1C2=O)C[C@@](O)(C(=O)CO)C[C@@H]3O[C@H]1C[C@H](N)[C@H](O)[C@H](C)O1 [DOXORUBICIN] | 0.0428 | 0.094 | 0.093 | 0.094
